Test results published in US8106055B2, “Substituted amide compounds” (Gruenenthal GmbH, priority 2007, dated 2012).
Read-outs that look alike come from different tables or passages of the source.

Key:
[1] = target: T1, serotonin (5-HT) reuptake (Rattus norvegicus, UniProt P31652); experiment: Inhibition of serotonin (5HT) reuptake in synaptosomes from rat brain; type: biochemical; conditions: test concentration of 10 μM; read-out: 5-HT (inhibition of reuptake of serotonin, % inhibition)
T1 construct: synaptosomes are freshly isolated from areas of the rat brain; from tissue; host or cells: rat brain synaptosomes (P2 fraction)
T1 sequence (P31652 whole entry): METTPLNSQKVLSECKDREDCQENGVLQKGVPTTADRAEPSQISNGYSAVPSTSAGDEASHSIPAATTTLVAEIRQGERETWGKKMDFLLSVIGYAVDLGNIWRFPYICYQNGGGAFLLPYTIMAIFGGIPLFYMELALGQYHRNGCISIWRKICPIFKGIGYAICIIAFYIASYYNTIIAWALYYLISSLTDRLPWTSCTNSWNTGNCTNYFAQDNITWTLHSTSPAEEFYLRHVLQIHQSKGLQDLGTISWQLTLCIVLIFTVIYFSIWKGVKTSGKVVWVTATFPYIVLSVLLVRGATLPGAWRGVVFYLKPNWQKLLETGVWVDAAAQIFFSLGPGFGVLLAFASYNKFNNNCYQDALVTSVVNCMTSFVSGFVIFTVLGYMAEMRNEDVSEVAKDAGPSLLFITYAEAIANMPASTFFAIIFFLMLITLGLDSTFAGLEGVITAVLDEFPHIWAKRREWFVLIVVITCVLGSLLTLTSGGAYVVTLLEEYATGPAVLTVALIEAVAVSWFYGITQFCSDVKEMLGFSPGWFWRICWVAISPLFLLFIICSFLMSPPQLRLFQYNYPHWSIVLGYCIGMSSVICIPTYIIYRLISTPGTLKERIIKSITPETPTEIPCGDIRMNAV
Procedure, shortened: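 Compounds screened at 10 μM and reported as percent inhibition of serotonin uptake. Uptake measured in a freshly prepared P2 synaptosomal fraction from rat brain.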

[2] = target: T2, bradykinin 1 receptor (B1R) of the rat (Rattus norvegicus, UniProt P97583); experiment: Functional investigation on the rat bradykinin 1 receptor (B1R), Ca2+ FLIPR assay in CHO K1 rB1R cells; type: cell-based
T2 construct: expressed in transfected cells; host or cells: CHO K1 cells
T2 sequence (P97583 1-337): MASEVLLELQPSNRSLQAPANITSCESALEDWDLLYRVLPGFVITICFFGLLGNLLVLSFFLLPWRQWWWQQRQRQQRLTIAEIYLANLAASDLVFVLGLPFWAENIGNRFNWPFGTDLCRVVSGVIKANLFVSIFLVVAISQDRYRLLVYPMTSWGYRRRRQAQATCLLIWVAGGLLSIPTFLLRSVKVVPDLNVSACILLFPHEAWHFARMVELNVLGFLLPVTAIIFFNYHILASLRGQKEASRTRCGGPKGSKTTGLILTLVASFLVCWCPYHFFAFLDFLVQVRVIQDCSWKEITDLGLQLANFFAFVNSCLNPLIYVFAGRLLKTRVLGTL
Procedure, shortened: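 Peak Ca2+-dependent fluorescence in B1R-transfected CHO K1 cells measures antagonism of an EC80 agonist challenge given 10-20 min after compound. Agonist is Lys-Des-Arg9-bradykinin for human, Des-Arg9-bradykinin for rat receptor.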

[3] = CHO-K1, B1R antagonism rat, test substance 10 μM, Ca2+ FLIPR, CHO K1 rB1R cells, read-out: B1R Ant. r [10 μM] % Inhibition
[4] = CHO-K1, read-out: B1R Ant. r [10 μM] % Inhibition

Compound: COc1cc(C)c(S(=O)(=O)N2CCC(OCC(=O)NC3CCC(C(c4cccs4)N(C)C)CC3)CC2)c(C)c1C (stereo not drawn) [Example 1, N-(4-((dimethylamino)(thiophen-2-yl)methyl)cyclohexyl)-2-(1-(4-methoxy-2,3,6-trimethylphenylsulfonyl)piperidin-4-yloxy)acetamide]
- inhibition at 10 µM [1]: 94%
- inhibition at 10 µM [2, 3]: -5%

Compound: Cc1ccc(S(=O)(=O)N(C)CCOCC(=O)NCC2CCC(C(c3cccs3)N(C)C)CC2)cc1 (stereo not drawn) [Example 4, N-((4-((dimethylamino)(thiophen-2-yl)methyl)cyclohexyl)methyl)-2-(2-(N,4-dimethylphenylsulfonamido)ethoxy)acetamide]
- inhibition at 10 µM [1]: 92%
- inhibition at 10 µM [2, 3]: 18%

Compound: COc1cc(C)c(S(=O)(=O)N2CCC(CCOCC(=O)NC3CCC(C(c4cccs4)N(C)C)CC3)CC2)c(C)c1C (stereo not drawn) [Example 5, N-(4-((dimethylamino)(thiophen-2-yl)methyl)cyclohexyl)-2-(2-(1-(4-methoxy-2,3,6-trimethylphenylsulfonyl)piperidin-4-yl)ethoxy)acetamide]
- inhibition at 10 µM [1]: 87%
- inhibition at 10 µM [2, 3]: -3%

Compound: CN(C)C(c1ccccc1)C1CCC(NC(=O)COCCN(C)S(=O)(=O)c2c(Cl)cc(Cl)cc2Cl)CC1 (stereo not drawn) [Example 34, N-(4-((dimethylamino)(phenyl)methyl)cyclohexyl)-2-(2-(2,4,6-trichloro-N-methylphenylsulfonamido)ethoxy)acetamide]
- inhibition at 10 µM [1]: 79%
- inhibition at 10 µM [2, 3]: 24%

Compound: COc1cc(C)c(S(=O)(=O)N(C)CCOCC(=O)NCC2CCC(C(c3cccs3)N(C)C)CC2)c(C)c1C (stereo not drawn) [Example 35, N-((4-((dimethylamino)(thiophen-2-yl)methyl)cyclohexyl)methyl)-2-(2-(4-methoxy-N,2,3,6-tetramethylphenylsulfonamido)ethoxy)acetamide]
- inhibition at 10 µM [1]: 84%
- inhibition at 10 µM [2, 3]: 0%

Compound: CN(C)C(c1cccs1)C1CCC(CNC(=O)COC2CCN(S(=O)(=O)c3ccccc3)C2)CC1 (stereo not drawn) [Example 36, N-((4-((dimethylamino)(thiophen-2-yl)methyl)cyclohexyl)methyl)-2-(1-(phenylsulfonyl)pyrrolidin-3-yloxy)acetamide]
- inhibition at 10 µM [1]: 102%
- inhibition at 10 µM [2, 3]: 3%

Compound: CN(C)C(c1cccs1)C1CCC(CCNC(=O)COCCN(C)S(=O)(=O)c2ccc(Cl)cc2)CC1 (stereo not drawn) [Example 37, 2-(2-(4-chloro-N-methylphenylsulfonamido)ethoxy)-N-(2-(4-((dimethylamino)(thiophen-2-yl)methyl)cyclohexyl)ethyl)acetamide]
- inhibition at 10 µM [1]: 90%
- inhibition at 10 µM [2, 3]: 21%

Compound: COc1ccc(S(=O)(=O)N2Cc3ccccc3CC2COCC(=O)NC2CCC(C(c3ccccc3)N(C)C)CC2)cc1 (stereo not drawn) [Example 38, N-(4-((dimethylamino)(phenyl)methyl)cyclohexyl)-2-((2-(4-methoxyphenylsulfonyl)-1,2,3,4-tetrahydroisoquinolin-3-yl)methoxy)acetamide]
- inhibition at 10 µM [1]: 61%
- inhibition at 10 µM [2, 3]: 46%

Compound: CN(C)C(c1ccccc1)C1CCC(NC(=O)COC2CCCCC2N(C)S(=O)(=O)c2ccc(Cl)c(Cl)c2)CC1 (stereo not drawn) [Example 39, 2-(2-(3,4-dichloro-N-methylphenylsulfonamido)cyclohexyloxy)-N-(4-((dimethylamino)(phenyl)methyl)cyclohexyl)acetamide]
- inhibition at 10 µM [1]: 91%
- inhibition at 10 µM [2, 3]: -8%

Compound: CN(C)C(c1cccc(F)c1)C1CCC(CCNC(=O)COCCN(C)S(=O)(=O)c2c(Cl)cccc2Cl)CC1 (stereo not drawn) [Example 41, 2-(2-(2,6-dichloro-N-methylphenylsulfonamido)ethoxy)-N-(2-(4-((dimethylamino)(3-fluorophenyl)methyl)cyclohexyl)ethyl)acetamide]
- inhibition at 10 µM [1]: 79%
- inhibition at 10 µM [2, 3]: 54%

Compound: CN(C)C(c1cccs1)C1CCC(NC(=O)COC2CCCN(S(=O)(=O)c3ccccc3)C2)CC1 (stereo not drawn) [Example 42, N-(4-((dimethylamino)(thiophen-2-yl)methyl)cyclohexyl)-2-(1-(phenylsulfonyl)piperidin-3-yloxy)acetamide]
- inhibition at 10 µM [1]: 91%
- inhibition at 10 µM [2, 4]: -17%

Compound: COc1cc(C)c(S(=O)(=O)N2CCC(OCC(=O)NC3CCC(C(c4cccs4)N(C)C)CC3)C2)c(C)c1C (stereo not drawn) [Example 43, N-(4-((dimethylamino)(thiophen-2-yl)methyl)cyclohexyl)-2-(1-(4-methoxy-2,3,6-trimethylphenylsulfonyl)pyrrolidin-3-yloxy)acetamide]
- inhibition at 10 µM [1]: 90%
- inhibition at 10 µM [2, 3]: 21%

Compound: COc1cc(C)c(S(=O)(=O)N2CCC(OCC(=O)NCC3CCC(C(c4ccccc4)N(C)C)CC3)C2)c(C)c1C (stereo not drawn) [Example 44, N-((4-((dimethylamino)(phenyl)methyl)cyclohexyl)methyl)-2-(1-(4-methoxy-2,3,6-trimethylphenylsulfonyl)pyrrolidin-3-yloxy)acetamide]
- inhibition at 10 µM [1]: 94%
- inhibition at 10 µM [2, 3]: 22%

Compound: COc1ccc(S(=O)(=O)N2CCCCC2COCC(=O)NCC2CCC(C(c3cccs3)N(C)C)CC2)cc1 (stereo not drawn) [Example 45, N-((4-((dimethylamino)(thiophen-2-yl)methyl)cyclohexyl)methyl)-2-((1-(4-methoxyphenylsulfonyl)piperidin-2-yl)methoxy)acetamide]
- inhibition at 10 µM [1]: 91%
- inhibition at 10 µM [2, 3]: 65%

Compound: COc1ccc(S(=O)(=O)N2CCCCC2CCOCC(=O)NCCC2CCC(C(c3cccs3)N(C)C)CC2)cc1 (stereo not drawn) [Example 46, N-(2-(4-((dimethylamino)(thiophen-2-yl)methyl)cyclohexyl)ethyl)-2-(2-(1-(4-methoxyphenylsulfonyl)piperidin-2-yl)ethoxy)acetamide]
- inhibition at 10 µM [1]: 96%
- inhibition at 10 µM [2, 3]: 77%

Compound: COc1ccc(S(=O)(=O)N2Cc3ccccc3CC2COCC(=O)NC2CCC(C(c3cccs3)N(C)C)CC2)cc1 (stereo not drawn) [Example 47, N-(4-((dimethylamino)(thiophen-2-yl)methyl)cyclohexyl)-2-((2-(4-methoxyphenylsulfonyl)-1,2,3,4-tetrahydroisoquinolin-3-yl)methoxy)acetamide]
- inhibition at 10 µM [1]: 98%
- inhibition at 10 µM [2, 3]: 36%

Compound: COc1ccc(S(=O)(=O)N2Cc3ccccc3CC2COCC(=O)NCCC2CCC(C(c3cccs3)N(C)C)CC2)cc1 (stereo not drawn) [Example 48, N-(2-(4-((dimethylamino)(thiophen-2-yl)methyl)cyclohexyl)ethyl)-2-((2-(4-methoxyphenylsulfonyl)-1,2,3,4-tetrahydroisoquinolin-3-yl)methoxy)acetamide]
- inhibition at 10 µM [1]: 101%
- inhibition at 10 µM [2, 3]: 22%

Compound: COc1ccc(S(=O)(=O)N2CCCCC2COCC(=O)NCC2CCC(C(c3cccs3)N(C)C)CC2)c(OC)c1 (stereo not drawn) [Example 49, 2-((1-(2,4-dimethoxyphenylsulfonyl)piperidin-2-yl)methoxy)-N-((4-((dimethylamino)(thiophen-2-yl)methyl)cyclohexyl)methyl)acetamide]
- inhibition at 10 µM [1]: 86%
- inhibition at 10 µM [2, 3]: 23%

Compound: COc1cc(C)c(S(=O)(=O)N(C)CCOCC(=O)NCCC2CCC(C(c3cccs3)N(C)C)CC2)c(C)c1C (stereo not drawn) [Example 52, N-(2-(4-((dimethylamino)(thiophen-2-yl)methyl)cyclohexyl)ethyl)-2-(2-(4-methoxy-N,2,3,6-tetramethylphenylsulfonamido)ethoxy)acetamide]
- inhibition at 10 µM [1]: 91%
- inhibition at 10 µM [2, 3]: 53%

Compound: CN(C)C(c1ccccc1)C1CCC(CNC(=O)COCCN(C)S(=O)(=O)c2ccc(OC(F)(F)F)cc2)CC1 (stereo not drawn) [Example 53, N-((4-((dimethylamino)(phenyl)methyl)cyclohexyl)methyl)-2-(2-(N-methyl-4-(trifluoromethoxy)phenylsulfonamido)ethoxy)acetamide]
- inhibition at 10 µM [1]: 92%
- inhibition at 10 µM [2, 3]: 41%

Compound: CN(C)C(c1cccs1)C1CCC(CNC(=O)COC2CCN(S(=O)(=O)c3ccc(Cl)cc3)C2)CC1 (stereo not drawn) [Example 54, 2-(1-(4-chlorophenylsulfonyl)pyrrolidin-3-yloxy)-N-((4-((dimethylamino)(thiophen-2-yl)methyl)cyclohexyl)methyl)acetamide]
- inhibition at 10 µM [1]: 84%
- inhibition at 10 µM [2, 3]: -20%

Compound: CN(C)C(c1cccs1)C1CCC(CNC(=O)COCCN(C)S(=O)(=O)c2ccc(Cl)cc2)CC1 (stereo not drawn) [Example 55, 2-(2-(4-chloro-N-methylphenylsulfonamido)ethoxy)-N-((4-((dimethylamino)(thiophen-2-yl)methyl)cyclohexyl)methyl)acetamide]
- inhibition at 10 µM [1]: 92%
- inhibition at 10 µM [2, 3]: 34%

Compound: CN(C)C(c1cccs1)C1CCC(CNC(=O)COCCN(C)S(=O)(=O)c2ccc(F)cc2)CC1 (stereo not drawn) [Example 56, N-((4-((dimethylamino)(thiophen-2-yl)methyl)cyclohexyl)methyl)-2-(2-(4-fluoro-N-methylphenylsulfonamido)ethoxy)acetamide]
- inhibition at 10 µM [1]: 100%
- inhibition at 10 µM [2, 4]: -4%

Compound: Cc1cc(C)c(S(=O)(=O)N(C)CCOCC(=O)NCC2CCC(C(c3cccs3)N(C)C)CC2)c(C)c1 (stereo not drawn) [Example 57, N-((4-((dimethylamino)(thiophen-2-yl)methyl)cyclohexyl)methyl)-2-(2-(N,2,4,6-tetramethylphenylsulfonamido)ethoxy)acetamide]
- inhibition at 10 µM [1]: 101%
- inhibition at 10 µM [2, 3]: 35%
